# Test system: HepG2 cells
# Assay: RNA-seq transcriptome analysis of differentially expressed genes
# Type: cell-based, human
# Experimental: The quality and concentration of RNA were examined by MOPS RNA electrophoresis and Eppendorf BioSpectrometer. The transcriptome analysis was performed by BGI-Wuhan China. The RNA-seq dataset of this study is accessible in the Gene Expression Omnibus (GEO) with an access number of GSE276099. The sequence library for each sample was prepared using the BGISEQ-500 platform with a 50-bp single-end (SE50) format. […]2.2.1) was used to align the clean reads to the reference genome and alignment of the clean reads to the reference genes was carried out using Bowtie2 (v2.4.5) ([Langmead and Salzberg, 2012]; [Kim et al., 2015]). Gene expression levels were calculated by RSEM (v1.3.1) ([Li and Dewey, 2011]). Analysis of differential gene expression was performed using edgeR in the Bioconductor software package ([Robinson et al., 2010]). Using a standard protocol, the RNA samples were also examined by reverse transcription and quantitative polymerase chain reaction (RT-qPCR). In brief, for reverse transcription, total RNA (1 μg) and gDNA wiper Mix were incubated at 42°C for 2 min. The samples were immediately incubated with a master mix containing 10 pmol/μL of poly (dT) primers at 37°C for 15 min and 85°C for 5 s. To detect the expression of specific genes by qPCR analysis, gene-specific primers (shown in Supplementary Table S1) were mixed with the ChamQ Universal SYBER qPCR Master Mix and the reaction was conducted using the Roche Lightcycler 480. The GAPDH value was used to normalize the results of each gene. The RNA-seq data of BCP-treated HepG2 cells were screened for DEGs. Gene symbols were turned into Enterz ID using the org.Hs.eg.db Bio-conductor R package. The cluster profiler (v4.6.2) package was used to perform the Kyoto Encyclopedia of Genes and Genomes (KEGG) and Gene Ontology (GO) enrichment analyses ([Wu et al., 2021]). Following the Transcript per million (TPM) data of the dataset, the line chart, and heatmap were plotted using ggplot2 and pheatmap R packages, respectively.
# [1] = HepG2, 150 µM BCP 24 h vs ethanol, RNA-seq DEG
# [2] = HepG2, 150 µM BCP 24 h vs ethanol, FDR ≤ 0.05, 1.5-fold change
smiles,measurement,setting,value
"C=C1CC/C=C(\C)CC[C@@H]2[C@@H]1CC2(C)C [BCP, β-caryophyllene]",TSHZ2 logFC,"BCP vs control HepG2, RNA-seq",0.586
same,TSPAN18 change,"BCP vs control HepG2, RNA-seq",Up
same,TSPAN18 logFC,"BCP vs control HepG2, RNA-seq",0.6055
same,TTC21A change,"BCP vs control HepG2, RNA-seq",Up
same,TTC21A logFC,"BCP vs control HepG2, RNA-seq",1.034
same,TTC30B change,"BCP vs control HepG2, RNA-seq",Up
same,TTC30B logFC,"BCP vs control HepG2, RNA-seq",1.0891
same,TYW1B change,"BCP vs control HepG2, RNA-seq",Down
same,TYW1B logFC,"BCP vs control HepG2, RNA-seq",-0.7579
same,VEPH1 change,"BCP vs control HepG2, RNA-seq",Up
same,VEPH1 logFC,"BCP vs control HepG2, RNA-seq",0.6882
same,WASF3 change,"BCP vs control HepG2, RNA-seq",Down
same,WASF3 logFC,"BCP vs control HepG2, RNA-seq",-1.027
same,WDR86 change,"BCP vs control HepG2, RNA-seq",Down
same,WDR86 logFC,"BCP vs control HepG2, RNA-seq",-0.8076
same,ZNF165 change,"BCP vs control HepG2, RNA-seq",Up
same,ZNF165 logFC,"BCP vs control HepG2, RNA-seq",0.918
same,ZNF284 change,"BCP vs control HepG2, RNA-seq",Down
same,ZNF284 logFC,"BCP vs control HepG2, RNA-seq",-0.7229
same,ZNF341 change,"BCP vs control HepG2, RNA-seq",Down
same,ZNF341 logFC,"BCP vs control HepG2, RNA-seq",-0.6282
same,ADORA2A expression change (BCP_treatment),[1],Down
same,ADRA2C expression change (BCP_treatment),[1],Down
same,ALYREF expression change (BCP_treatment),[1],Down
same,ANK1 expression change (BCP_treatment),[1],Down
same,ANKFN1 expression change (BCP_treatment),[1],Down
same,ARTN expression change (BCP_treatment),[1],markedly downregulated and Down
same,B3GNT4 expression change (BCP_treatment),[1],Down
same,BICDL1 expression change (BCP_treatment),[1],Down
same,BOC expression change (BCP_treatment),[1],Down
same,BOLA2B expression change (BCP_treatment),[1],Down
same,CA5B expression change (BCP_treatment),[1],Down
same,CACNA1E expression change (BCP_treatment),[1],markedly downregulated and Down
same,CAMK2N2 expression change (BCP_treatment),[1],Down
same,CCDC86 expression change (BCP_treatment),[1],Down
same,CCL26 expression change (BCP_treatment),[1],Down
same,CHST6 expression change (BCP_treatment),[1],Down
same,CLIP2 expression change (BCP_treatment),[1],Down
same,CYP26B1 expression change (BCP_treatment),[1],Down
same,DPF1 expression change (BCP_treatment),[1],Down
same,EN2 expression change (BCP_treatment),[1],Down
same,FAM222A expression change (BCP_treatment),[1],Down
same,FBXL22 expression change (BCP_treatment),[1],Down
same,FBXO27 expression change (BCP_treatment),[1],Down
same,FBXO44 expression change (BCP_treatment),[1],Down
same,FRMD3 expression change (BCP_treatment),[1],Down
same,FUT3 expression change (BCP_treatment),[1],Down
same,GBP2 expression change (BCP_treatment),[1],Down
same,GNAZ expression change (BCP_treatment),[1],Down
same,H1-2 expression change (BCP_treatment),[1],Down
same,H2BC11 expression change (BCP_treatment),[1],Down
same,H2BC12 expression change (BCP_treatment),[1],Down
same,H3C6 expression change (BCP_treatment),[1],Down
same,H4C8 expression change (BCP_treatment),[1],Down
same,HPDL expression change (BCP_treatment),[1],Down
same,ISYNA1 expression change (BCP_treatment),[1],Down
same,KCNH3 expression change (BCP_treatment),[1],Down
same,KHDC1 expression change (BCP_treatment),[1],Down
same,LYSMD4 expression change (BCP_treatment),[1],Down
same,MAFA expression change (BCP_treatment),[1],Down
same,MAGEB17 expression change (BCP_treatment),[1],Down
same,MAP1A expression change (BCP_treatment),[1],Down
same,MNX1 expression change (BCP_treatment),[1],Down
same,MYB expression change (BCP_treatment),[1],Down
same,MYEOV expression change (BCP_treatment),[1],Down
same,NES expression change (BCP_treatment),[1],Down
same,NR6A1 expression change (BCP_treatment),[1],Down
same,PAQR5 expression change (BCP_treatment),[1],Down
same,PGF expression change (BCP_treatment),[1],markedly downregulated and Down
same,PI3 expression change (BCP_treatment),[1],Down
same,RAPGEF3 expression change (BCP_treatment),[1],Down
same,RASD2 expression change (BCP_treatment),[1],Down
same,RHBDL3 expression change (BCP_treatment),[1],Down
same,S100A3 expression change (BCP_treatment),[1],Down
same,SCIN expression change (BCP_treatment),[1],Down
same,SHC3 expression change (BCP_treatment),[1],Down
same,SLC4A11 expression change (BCP_treatment),[1],Down
same,SP6 expression change (BCP_treatment),[1],Down
same,STXBP6 expression change (BCP_treatment),[1],Down
same,SYN3 expression change (BCP_treatment),[1],Down
same,TMEM120B expression change (BCP_treatment),[1],Down
same,TMEM158 expression change (BCP_treatment),[1],Down
same,TNFSF15 expression change (BCP_treatment),[1],Down
same,TRNP1 expression change (BCP_treatment),[1],Down
same,VAMP1 expression change (BCP_treatment),[1],Down
same,ZBED6CL expression change (BCP_treatment),[1],Down
same,ZNF284 expression change (BCP_treatment),[1],Down
same,ZNF341 expression change (BCP_treatment),[1],Down
same,number of downregulated genes,[2],245
same,number of upregulated genes,[2],188
same,total number of DEGs,[2],433
same,logFC ABLIM2,"gene ABLIM2, BCP vs control HepG2, RNA-seq",1.01
same,change ABLIM2,"gene ABLIM2, DEG direction, BCP vs control HepG2",Up
same,logFC ACKR3,"gene ACKR3, BCP vs control HepG2, RNA-seq",0.6675
same,change ACKR3,"gene ACKR3, DEG direction, BCP vs control HepG2",Up
same,logFC ACYP2,"gene ACYP2, BCP vs control HepG2, RNA-seq",-0.6093
same,change ACYP2,"gene ACYP2, DEG direction, BCP vs control HepG2",Down
same,logFC ADGRD1,"gene ADGRD1, BCP vs control HepG2, RNA-seq",0.8304
same,change ADGRD1,"gene ADGRD1, DEG direction, BCP vs control HepG2",Up
same,logFC ADGRG6,"gene ADGRG6, BCP vs control HepG2, RNA-seq",0.7321
same,change ADGRG6,"gene ADGRG6, DEG direction, BCP vs control HepG2",Up
same,logFC AKR1B1,"gene AKR1B1, BCP vs control HepG2, RNA-seq",-0.8932
same,change AKR1B1,"gene AKR1B1, DEG direction, BCP vs control HepG2",Down
same,logFC ALDH1L2,"gene ALDH1L2, BCP vs control HepG2, RNA-seq",0.8642
same,change ALDH1L2,"gene ALDH1L2, DEG direction, BCP vs control HepG2",Up
same,logFC ALPI,"gene ALPI, BCP vs control HepG2, RNA-seq",0.9718
same,change ALPI,"gene ALPI, DEG direction, BCP vs control HepG2",Up
same,logFC ALPL,"gene ALPL, BCP vs control HepG2, RNA-seq",1.081
same,change ALPL,"gene ALPL, DEG direction, BCP vs control HepG2",Up
same,logFC ALYREF,"gene ALYREF, BCP vs control HepG2, RNA-seq",-0.7733
same,change ALYREF,"gene ALYREF, DEG direction, BCP vs control HepG2",Down
same,logFC AMPD2,"gene AMPD2, BCP vs control HepG2, RNA-seq",-0.8008
same,change AMPD2,"gene AMPD2, DEG direction, BCP vs control HepG2",Down
same,logFC ANKFN1,"gene ANKFN1, BCP vs control HepG2, RNA-seq",-1.752
same,change ANKFN1,"gene ANKFN1, DEG direction, BCP vs control HepG2",Down
same,logFC ANO2,"gene ANO2, BCP vs control HepG2, RNA-seq",1.524
same,change ANO2,"gene ANO2, DEG direction, BCP vs control HepG2",Up

# — article PMC11671526, “β-caryophyllene sensitizes hepatocellular carcinoma cells to chemotherapeutics and inhibits cell malignancy through targeting MAPK signaling pathway” (Frontiers in Pharmacology, 2024)
